Earlier results, collected in patent publication US10123974B2, “Sustained release formulation of a non-steroidal anti-inflammatory drug” (PACIRA PHARMACEUTICALS, INC., priority 2010, dated 2018).

Conditions: chronic 100 mg/day systemic dosing

- synovial fluid levels: ≤ 200 ng/mL
SMILES: O=C(O)Cc1ccccc1Nc1c(Cl)cccc1Cl [diclofenac]
